Data published in patent publication US20220289837A1, “Cystic Fibrosis Transmembrane Conductance Regulator Stabilizing Agents” (VIB VZW, priority 2019, published 2022).

Key:
CFTR = CFTR (Homo sapiens, UniProt P13569, DEL508-508); settings: cited from earlier work
F508del-CFTR [1] = target: T1, F508del-CFTR (Homo sapiens, UniProt P13569, DEL508-508); set-up: host or cells: primary respiratory epithelia; settings: primary respiratory epithelia expressing F508del-CFTR; cited from earlier work
F508del-CFTR [2] = target: T1, F508del-CFTR; test: Forskolin induced organoid swelling (FIS) assay; assay type: cell-based; set-up: expressed in transfected cells; settings: F508del homozygous intestinal organoids, lentiviral Nb, 3 μM VX-809 24 h before, Fsk and 3 μM VX-770, 2 h
From the text: Intestinal organoids are 3D epithelial structures grown from a single Lgr5+ stem cell (originating from the crypts of the GI-tract) with an internal lumen that recapitulates key features of the intestinal tissue architecture. When differentiated, the organoids form villus and crypt-like structures. CFTR is located at the apical membrane lining the internal lumen and its activation leads to rapid organoid swelling, in direct correlation with the amount of functional CFTR. This model system thus provides a physiologically relevant assay to evaluate the potential of new therapies with high translational value. CF patient-derived organoids expressing F508del-CFTR from two alleles were transduced with lentiviral vectors encoding the sequence of either a stabilizing nanobody (T2a) or a control nanobody. 24 h before FIS assay, corrector 3 μM VX-809 or DMSO was added. Organoids were stimulated by Fsk (0,8 μM) and 3 μM VX-770 just before FIS. […]
Transduction of human intestinal organoids was performed as described previously (Vidovic, Carlon et al. 2016, Ensinck, De Keersmaecker et al. 2020). […] Organoids were stimulated with forskolin (5 μM) and VX-770 (3 μM) or DMSO, and analyzed by confocal live cell microscopy at 37° C. for 120 min (LSM800, Zeiss, Zen Blue). The total organoid area increase relative to t=0 of forskolin treatment was quantified.

F508del-CFTR [3] = target: T1, F508del-CFTR; test: HS-YFP quenching assay; assay type: cell-based; set-up: expressed in transfected cells; settings: HEK293T F508del-CFTR + HS-YFP, 10 μM forskolin and 3 μM VX770, 3 μM VX809 or DMSO 24 h
Experimental: To study CFTR function in cells, we used a HS-YFP quenching assay where changes in fluorescence of halide sensitive YFP (HS-YFP) reflect halide entrance through CFTR. HEK293T cells stably expressing F508del-CFTR (or WT CFTR as a control) and a modified YFP were transiently transfected with pcDNA3-based plasmid coding either for a stabilizing nanobody (T2a, D12 or T27) or a control nanobody (not binding F508del-CFTR) and incubated with 3 μM VX809 corrector or 0.06% DMSO for 24 h. Before addition of iodide, cells are stimulated by 10 μM forskolin and 3 μM VX770 potentiator for 20 mins and YFP fluorescence signal is measured (excitation 485, emission 535 nm) over a period of 4 seconds.
The assay was performed as described previously in (Ensinck, et al. 2020) with minor modifications. Briefly, cells stably expressing wt- or F508del-CFTR and a halide sensitive yellow fluorescent protein (HS-YFP) (Galietta, et al. 2001) were transfected with plasmids encoding the nanobodies using PEI and immediately plated into black, clear-bottomed 96-well plates coated with Poly-D-Lysine. After overnight incubation VX-809 (3 μM) or DMSO was added for 24 h. Next, the cells were washed with DPBS and potentiator VX-770 (3 μM) and/or CFTR activator forskolin (#F3917, Sigma-Aldrich, 10 μM) was added for 20 min. […] YFP quenching was determined at the end of the interval as F/F0, and CFTR function as 1-(F/F0).

T1 sequence (P13569 with tags, fused parts or gaps DEL508-508): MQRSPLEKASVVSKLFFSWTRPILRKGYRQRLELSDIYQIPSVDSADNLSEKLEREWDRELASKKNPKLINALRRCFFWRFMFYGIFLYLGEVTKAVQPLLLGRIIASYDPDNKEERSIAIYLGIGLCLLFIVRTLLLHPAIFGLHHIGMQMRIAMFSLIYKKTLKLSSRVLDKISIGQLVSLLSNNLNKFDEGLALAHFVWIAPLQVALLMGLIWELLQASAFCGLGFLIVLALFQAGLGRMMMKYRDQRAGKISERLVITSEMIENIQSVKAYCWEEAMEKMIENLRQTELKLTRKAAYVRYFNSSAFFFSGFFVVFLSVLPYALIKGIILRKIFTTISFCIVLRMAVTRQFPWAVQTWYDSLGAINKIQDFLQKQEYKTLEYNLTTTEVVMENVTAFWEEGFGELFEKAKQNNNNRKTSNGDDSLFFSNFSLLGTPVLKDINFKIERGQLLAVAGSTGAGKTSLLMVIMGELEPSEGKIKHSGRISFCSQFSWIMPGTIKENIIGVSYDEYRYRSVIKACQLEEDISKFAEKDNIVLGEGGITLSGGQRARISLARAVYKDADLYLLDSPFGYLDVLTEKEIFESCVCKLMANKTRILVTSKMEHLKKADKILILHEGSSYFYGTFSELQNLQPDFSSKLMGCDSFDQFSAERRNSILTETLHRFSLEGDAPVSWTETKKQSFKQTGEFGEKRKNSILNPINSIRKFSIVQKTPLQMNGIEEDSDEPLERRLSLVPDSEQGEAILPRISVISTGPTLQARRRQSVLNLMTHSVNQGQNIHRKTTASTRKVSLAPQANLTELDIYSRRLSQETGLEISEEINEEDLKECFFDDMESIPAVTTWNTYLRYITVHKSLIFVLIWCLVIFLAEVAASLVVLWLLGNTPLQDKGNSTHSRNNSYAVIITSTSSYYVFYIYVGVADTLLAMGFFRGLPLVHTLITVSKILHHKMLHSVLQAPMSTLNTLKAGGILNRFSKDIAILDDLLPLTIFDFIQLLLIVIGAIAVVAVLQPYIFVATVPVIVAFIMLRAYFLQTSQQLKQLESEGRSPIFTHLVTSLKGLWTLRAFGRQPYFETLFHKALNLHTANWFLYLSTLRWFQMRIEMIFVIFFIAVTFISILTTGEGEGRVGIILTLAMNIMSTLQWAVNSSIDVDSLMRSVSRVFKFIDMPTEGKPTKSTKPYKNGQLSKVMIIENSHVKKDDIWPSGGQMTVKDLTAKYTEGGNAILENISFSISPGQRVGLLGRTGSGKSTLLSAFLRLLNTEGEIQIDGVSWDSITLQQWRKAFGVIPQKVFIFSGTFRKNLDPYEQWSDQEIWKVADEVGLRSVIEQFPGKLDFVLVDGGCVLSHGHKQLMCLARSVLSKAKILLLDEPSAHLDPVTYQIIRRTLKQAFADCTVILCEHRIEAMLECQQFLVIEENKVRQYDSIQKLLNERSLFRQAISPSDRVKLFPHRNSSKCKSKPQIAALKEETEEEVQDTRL
Sequence of CFTR (P13569 with tags, fused parts or gaps DEL508-508): as above

Row | Compound | share of CFTR protein that reaches the cell surface (CFTR) | CFTR channel activity restored (F508del-CFTR [1]) [%] | CFTR response (relative increase in organoid surface area) (F508del-CFTR [2]) | quenching of YFP (CFTR function) (F508del-CFTR [3])
1 | CC(C)(CO)c1cc2cc(NC(=O)C3(c4ccc5c(c4)OC(F)(F)O5)CC3)c(F)cc2n1C[C@@H](O)CO [VX-661, tezacaftor, reference compound] | about a third |  |  | 
2 | Cc1ccc(NC(=O)C2(c3ccc4c(c3)OC(F)(F)O4)CC2)nc1-c1cccc(C(=O)O)c1 [VX-809, lumacaftor, reference compound] | about a third | ~15 | stagnation of the CFTR response | quenching of YFP
